What is called remaining activity is what remains of the control signal, in per cent. A word on the IC50: it is the concentration that gives 50% inhibition.

Where two headings read alike, the source gives them in different places.

In assay [1] the test system is Hek cells stably expressing tubulin-GFP. The assay is described as follows: Time-lapse of Hek cells expressing tubulin-GFP. The note with it: 0.5 μM; continuous imaging. The class given is cell-based. The protocol:
Mitotic Hek cells stably expressing tubulin-GFP were continuously imaged and representative of either control or treated cells (C14 and C1, 0.5 μM) are shown. Elapse times are indicated on each photo.
Mitotic Hek cells stably expressing tubulin-GFP were continuously imaged and representative of either control or treated cells (C14 and C1, 0.5 μM) are shown (FIG. 8). Elapse times are indicated on each photo. In the control as well as in the presence of C1 the mitotic spindle is organized (24 min and To respectively) whereas in the presence of C14, the two poles are only connected by few microtubules (97 min and 130 min). Finally, in the presence of C14, cells escape from mitosis and cytoplasmic microtubules are observed (159 min and 212 min). Note that a duplication of the spindle occurs upon C1 treatment (106 min)

Assay [2] addresses Aurora B (Homo sapiens, UniProt Q96GD4). The assay is described as follows: Kinase profiling in vitro at 1 μM. The class given is biochemical. The protocol: (§1) The specificity of C14 was tested, in vitro, against 121 kinases representative of the kinome. Assays run in duplicate, at the concentration of 1 μM, were performed by MRC (Dundee, UK). Results are represented in FIG. 1. The main targets are highlighted in FIG. 1B.
(§2) In addition, the percentage of remaining activity of recombinant kinases Aurora kinases A and B and Checkpoint kinases 1 and 2 at the concentration of 1 μM of C1, C2 and C14 have been determined.
(§3) The profiling was performed at the MRC (Dundee University), in duplicate, on a set of 121 kinases. The panel is representative of the major different classes of kinases. Compounds were used at the concentration of 1 μM. In vitro, IC50 were determined on recombinant kinases by Reaction biology Corp (USA).

For assay [3], the target named is Chk2 (Homo sapiens, UniProt O96017). The assay is described as follows: Kinase profiling in vitro at 1 μM. The class given is biochemical. The protocol:
as §1, §2, §3

Assay [4] addresses T1, CHK1 (Homo sapiens, UniProt O14757).
T1 sequence (O14757 1-476): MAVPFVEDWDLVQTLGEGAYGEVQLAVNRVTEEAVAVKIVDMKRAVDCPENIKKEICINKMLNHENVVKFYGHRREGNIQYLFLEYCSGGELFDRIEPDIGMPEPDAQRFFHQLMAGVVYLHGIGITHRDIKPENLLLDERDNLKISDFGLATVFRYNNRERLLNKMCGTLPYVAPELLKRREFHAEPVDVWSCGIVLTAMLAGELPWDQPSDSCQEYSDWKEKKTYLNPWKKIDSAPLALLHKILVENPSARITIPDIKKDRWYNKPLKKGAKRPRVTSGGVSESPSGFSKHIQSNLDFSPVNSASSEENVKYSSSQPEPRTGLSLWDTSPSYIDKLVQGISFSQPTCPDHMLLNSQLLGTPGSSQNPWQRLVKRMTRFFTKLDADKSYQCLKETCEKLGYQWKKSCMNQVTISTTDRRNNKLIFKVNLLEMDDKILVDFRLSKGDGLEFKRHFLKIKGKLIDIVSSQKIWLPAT
The assay is described as follows: Kinase profiling in vitro at 1 μM. The class given is biochemical. The protocol:
as §1, §2, §3

For assay [5], the system named is HeLa cells. Kind of assay: Cell cycle analysis by FACS (propidium iodide). The class given is cell-based. The following applies: 0.5 μM. The protocol:
The influence of the C14 treatment versus C1 and control (Te) were analysed by FACS following propidium iodine labelling. C1 and C14 were added at the concentration of 0.5 μM and the treatment lasted either 30 h or 48 h. On the top histogram, arrows allowed the visualization of the different phases of the cell cycle and the corresponding data are reported in Table 4.
HeLa cells were incubated in the presence of either C1 (0.5 μM) or C14 (0.5 μM) or DMSO (Te) and the reparation of the cells in the different phases is analyzed by FACS.
Cells were incubated in either the presence or the absence of compounds. For determination of cell cycle profile, cells were fixed by ice-cold 70% ethanol for 1 h and then, incubated with propidium iodide solution (50 μg/ml PI in the presence of 0.2 mg/ml RNAse) for 15 minutes at 37° C. DNA content was measured using the FACS flow cytometer equipped with CellQuest Pro software (Becton Dickinson, San Diego, Calif.).
In general terms: Flow cytometry measures light scatter and fluorescence of single cells or particles in a stream.

In assay [6] the test system is H322. Kind of assay: Cell viability test (CellTiter 96 AQueous One Solution). The class given is cell-based. The note with it: NCI-H322; H322 (Lung); 72 h of treatment; read-out: IC50 (cell line viability). As for the experimental part: H358, H322 (lung cancer cells), U373 (glioblastomes) and HeLa ([…]) were grown in DMEM (1.5 g/L glucose) whereas HL60 (human myeloid cell line) cells were in RPMI 1640. U2OS (a human osteosarcoma cell line) cells were cultured in McCoy's Medium 5 A and liver cells (SK Hep 1) in DMEM (4 g/L glucose, (Gibco-Invitrogen). Media (Gibco-Invitrogen), were supplemented with 10% heat-inactivated foetal bovine serum (Gibco-Invitrogen), L-glutamine (2 mM), penicillin (100 UI/ml) and streptomycin (100 μg/ml).
Cell proliferation assays were conducted in 96 well culture plates. Assays were run in triplicate. Cell viability was estimated upon 72 h of treatment with varying concentrations of compound by addition of CellTiter 96Queous one Solution Reagent (Promega) directly to culture wells under conditions defined by the manufacturer.

In assay [7] the test system is Quiescent H358 cells. The assay is described as follows: Viability of quiescent (serum-deprived) cells. The class given is cell-based. The following applies: 0.5 μM, 96 hours post-treatment, absence of serum. As for the experimental part: FIG. 5: Quiescent H358 cells were incubated with the compound, for 96 h, in the absence of serum. Three different concentrations of C14 were used and live cells were estimated with MTT (Promega). In the control only DMSO was added.
H358 cells were deprived in serum for 2 days and then incubated with the compound, for 96 h, still in the absence of serum. At the concentration (0.5 μM) that induced death of more than 50% of cycling cells, 90% of the cells are still alive 96 hours post-treatment (FIG. 5). C14 is thus not deleterious for quiescent cells.
Cells were drawn to quiescence by serum withdrawn. After two days of serum deprivations cells were incubated with different concentrations of compounds for 96 hours, serum being still omitted. The viability is determined as described above.

Setting [8] is: compound at 1 μM, read-out: percentage of remaining activity of recombinant kinase.
Where [9] appears, read: Chk1, compound at 1 μM, read-out: percentage of remaining activity of recombinant kinase.
[10] abbreviates: 1 microMolar in vitro, read-out: Percent of remaining activity.

Chain of Aurora B (Q96GD4 whole entry): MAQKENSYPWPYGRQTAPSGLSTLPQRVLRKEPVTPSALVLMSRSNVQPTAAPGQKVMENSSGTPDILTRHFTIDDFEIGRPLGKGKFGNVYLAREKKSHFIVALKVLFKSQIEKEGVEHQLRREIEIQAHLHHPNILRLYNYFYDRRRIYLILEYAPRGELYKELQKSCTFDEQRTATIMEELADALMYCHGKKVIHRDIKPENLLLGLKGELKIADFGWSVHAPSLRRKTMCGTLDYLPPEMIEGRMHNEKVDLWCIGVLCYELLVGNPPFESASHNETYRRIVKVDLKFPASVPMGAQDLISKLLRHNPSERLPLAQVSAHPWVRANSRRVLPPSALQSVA
Chain of Chk2 (O96017 whole entry, species assumed): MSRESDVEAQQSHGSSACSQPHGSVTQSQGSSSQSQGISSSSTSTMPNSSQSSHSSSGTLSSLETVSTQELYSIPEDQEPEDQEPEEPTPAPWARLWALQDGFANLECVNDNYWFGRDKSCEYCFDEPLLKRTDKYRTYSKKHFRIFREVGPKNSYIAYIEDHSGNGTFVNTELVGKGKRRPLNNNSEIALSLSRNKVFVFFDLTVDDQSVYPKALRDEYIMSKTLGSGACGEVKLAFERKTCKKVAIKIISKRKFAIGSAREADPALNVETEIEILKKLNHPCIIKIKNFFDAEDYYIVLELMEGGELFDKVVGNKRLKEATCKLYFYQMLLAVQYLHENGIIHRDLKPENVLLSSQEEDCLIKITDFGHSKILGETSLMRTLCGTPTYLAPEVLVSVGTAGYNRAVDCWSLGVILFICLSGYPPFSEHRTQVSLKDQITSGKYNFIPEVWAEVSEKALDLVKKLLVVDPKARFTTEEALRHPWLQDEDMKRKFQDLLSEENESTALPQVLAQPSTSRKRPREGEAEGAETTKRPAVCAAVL

As for `CCc1c[nH]c(=O)c2c1[nH]c1ccc3cc(OC)ccc3c12` [Compound C1, reference compound], the “effect on mitotic spindle (in words)” value in assay [1] is “induced its duplication”. Further, in assay [2] (setting [8]), the remaining activity at 1 µM worked out at 19%. The remaining activity at 1 µM in assay [3] (setting [8]) is 6%. Further, in assay [4] (setting [9]), the remaining activity at 1 µM was found to be 23%. In addition, in assay [5] (30 h), the “<2N in %” value turned out to be 6%, the “>4N in %” value stood at 26%, the G0/G1 in % came to 24% and the G2/M in % worked out at 28%. The S in % in assay [5] (30 h) was determined as 13%. For the same compound, in assay [5] (48 h), the “<2N in %” value was found to be 6%, the “>4N in %” value amounted to 41%, the G0/G1 in % was 18% and the G2/M in % was determined as 22%. Also, the S in % in assay [5] (48 h) is given as 8%. The compound further showed a cells still cycling in assay [5] (after 48 h of treatment) of 48%.
In the case of `Cc1cncc2c1[nH]c1ccc3cc(OCCN(C)C)ccc3c12` [CH21, 3-(2-N,N-dimethylaminoethyloxy)-8-methyl-7H-benzo[e]pyrido(4,3-b)indole], the IC50 in assay [6] worked out at 800 nM.
On to `Cc1c[nH]c(=O)c2c1[nH]c1ccc3cc(OCCN(C)C)ccc3c12` [Compound C14, 3-(2-N,N-Dimethylaminoethoxy)-8-methyl-7H,10H-benzo[e]pyrido(4,3-b)indol-11-one], for which the half-inhibitory concentration (IC50) in assay [6] was > 4000 nM. Also, in assay [7], the cells still alive was determined as 90%. Moreover, in assay [1], the “effect on mitotic spindle (in words)” value is “prevented mitotic spindle organization”. In addition, the remaining activity at 1 µM in assay [2] (setting [10]) was found to be 24%; in assay [2] (setting [8]) it was 24%; in assay [3] (setting [10]) it was 9%; in assay [3] (setting [8]), 9%; in assay [4] (CHK1, 1 microMolar in vitro, read-out: Percent of remaining activity) it was 31%; in assay [4] (setting [9]), 31%. The results for the “<2N in %” value in assay [5] (30 h) and in assay [5] (48 h) were 19% and 22%, respectively. In addition, the “>4N in %” value in assay [5] (30 h) and in assay [5] (48 h) was 56% throughout. Moreover, the G0/G1 in % in assay [5] (30 h) is on record as 3%; in assay [5] (48 h), 2%. The figures for the G2/M in % in assay [5] (30 h) and in assay [5] (48 h) were 18% and 4%, respectively. The results for the S in % in assay [5] (30 h) and in assay [5] (48 h) were 4% and 2%, respectively. Further, the “cells in G0/G1 and S” value in assay [5] (30 h) stood at 7%; in assay [5] (48 h), 5%.

Values taken from patent publication US20140073637A1, “AMINO-SUBSTITUTED-ALKYLOXY-BENZO[E]PYRIDO[4,3-B]INDOLE DERIVATIVES AS NEW POTENT KINASE INHIBITORS” (INSTITUT CURIE, priority 2011, published 2014).
